According to patent US12486259B2, “FXR agonist having pyrazine structure, and preparation method and use” (JIANGSU TASLY DIYI PHARMACEUTICAL CO., LTD., priority 2020, dated 2025):

Columns and labels:
[1] = molecular target: T1, GST-labeled recombinant human FXR protein (Homo sapiens, UniProt Q96RI1); assay: Agonistic activity on FXR receptor (GST-FXR / SRC-1 bead assay, protein level); type: biochemical; settings: 0.4 nM FXR, 30 nM SRC-1, protein level
T1 construct: purchased Invitroren (so in the source)
T1 sequence (Q96RI1 262-486 limits assumed): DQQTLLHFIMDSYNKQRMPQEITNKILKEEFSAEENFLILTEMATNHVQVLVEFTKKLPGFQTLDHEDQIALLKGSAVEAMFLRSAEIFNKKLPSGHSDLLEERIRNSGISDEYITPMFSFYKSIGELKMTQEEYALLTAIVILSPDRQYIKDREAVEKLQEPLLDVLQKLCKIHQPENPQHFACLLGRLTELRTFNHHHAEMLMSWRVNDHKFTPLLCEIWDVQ
T1 sequence (Q15788 676-700 partner limits assumed): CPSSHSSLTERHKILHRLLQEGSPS
Method: Experimental procedures: FXR (GST-labeled recombinant human FXR protein, manufacturer: Invitroren, Item number: PV4835) and SRC-1 (steroid receptor co-activator-1) are thawed on ice. Three solutions of ABC are prepared by a buffer solution, solution A, 0.4 n M FXR and 30 nM SRC-1; solution B, 10 ug/ml Acceptor Beads; solution C, 10 ug/ml Donor Beads. Solution A is added to the plate at 15 uL per well. It is incubated at room temperature for 1 hour. Solution B is added to the plate at 7.5 uL per well. It is incubated at room temperature for 1 hour. Solution C is added to the plate at 7.5 uL per well. It is incubated at room temperature for 1 hour. It is read from the microplate reader Envision. The data are curve fitted by using Prism 5.0 to calculate the EC50.

in vitro = settings: human; for efflux ratio: Caco-2; for Papp B→A: Caco-2, Papp B-A; for recovery: Caco-2, Recovery rate A-B
Method: The bi-directional transport of target compounds from apical side (AP) to basolateral side (BL) and from BL side to AP side is studied by using human colon adenocarcinoma cell line Caco-2 monolayer model. The transport parameters, apparent permeability coefficient (Papp) and efflux ratio are calculated by quantitative analysis with high performance liquid chromatography (HPLC).

[2] = Caco-2, Papp, A-to-B values (highly permeable substrates)

Row | EC50 [1] | efflux ratio (in vitro) | Papp A→B (in vitro; Caco-2, Papp A-B) | Papp A→B (in vitro; Caco-2, Papp A-B, Average) | Papp A→B (in vitro; Caco-2, Papp A-B, Sample-01) | Papp A→B (in vitro; Caco-2, Papp A-B, Sample-02) | Papp B→A (in vitro) | Papp A→B (in vitro; [2]) | recovery (in vitro; Average) | recovery (in vitro; Sample-01) | recovery (in vitro; Sample-02) | SMILES
1 | 2320 nM | 3.75 | 8.87 ×10⁻⁶ cm/s | 9.02 ×10⁻⁶ cm/s | 8.57 ×10⁻⁶ cm/s | 9.47 ×10⁻⁶ cm/s | 33.3 ×10⁻⁶ cm/s | > 2.5 ×10⁻⁶ cm/s | 70.8% | 64.9% | 76.8% | O=C(O)c1cccc(N2CC(O)(c3cnc(OCc4c(-c5c(Cl)cccc5Cl)noc4C4CC4)cn3)C2)c1 [TM-02, 3-(3-(5-((5-cyclopropyl-3-(2,6-dichlorophenyl)isoxazol-4-yl)methoxy)pyrazine-2-yl)-3-hydroxyazetidin-1-yl) benzoic acid]
2 | 2410 nM | 5.12 | 7.54 ×10⁻⁶ cm/s | 7.17 ×10⁻⁶ cm/s | 7.86 ×10⁻⁶ cm/s | 6.48 ×10⁻⁶ cm/s | 38.6 ×10⁻⁶ cm/s | > 2.5 ×10⁻⁶ cm/s | 74.2% | 81% | 67.3% | CC(C)c1onc(-c2c(Cl)cccc2Cl)c1COc1cnc(C2(O)CC(c3cccc(C(=O)O)c3)C2)cn1 (centres unmarked) [TM-06, 3-(3-(5-(5-isopropyl-3-(2,6-dichlorophenyl)isoxazole-4-ylmethoxy)-2-pyrazine)-1-hydroxycyclobutane) benzoic acid]
3 | 480 nM | 4.22 | 6.91 ×10⁻⁶ cm/s | 8.75 ×10⁻⁶ cm/s | 8.46 ×10⁻⁶ cm/s | 9.05 ×10⁻⁶ cm/s | 29.2 ×10⁻⁶ cm/s | > 2.5 ×10⁻⁶ cm/s | 81.4% | 80.9% | 82% | Cc1cc(C(=O)O)cc(C2CC(O)(c3cnc(OCc4c(-c5c(Cl)cccc5Cl)noc4C(C)C)cn3)C2)c1 (centres unmarked) [TM-09, 3-(3-(5-((3-(2,6-dichlorophenyl)-5-isopropylisoxazol-4-yl)methoxy)pyrazine-2-yl)-3-hydroxycyclobutyl)-5-methyl benzoic acid]
4 | 540 nM | 3.95 | 8.25 ×10⁻⁶ cm/s | 8.17 ×10⁻⁶ cm/s | 6.42 ×10⁻⁶ cm/s | 9.91 ×10⁻⁶ cm/s | 32.6 ×10⁻⁶ cm/s | > 2.5 ×10⁻⁶ cm/s | 71.2% | 63.9% | 78.5% | O=C(O)c1cccc(C2CC(O)(c3cnc(OCc4c(-c5c(Cl)cccc5Cl)noc4C4CC4)cn3)C2)c1 (centres unmarked) [TM-01, 3-(3-(5-(5-cyclopropyl-3-(2,6-dichlorophenyl)isoxazole-4-ylmethoxy)-2-pyrazine)-1-hydroxycyclobutane) benzoic acid]
